In series [1] the target is T1, hERG channel (Homo sapiens, UniProt Q12809).
T1 construct: expressed in transfected cells; host or cells: CHO (Chinese hamster ovary)
In words: hERG channel inhibition assay (patch-clamp, CHOhERG cells). The series is classed as cell-based. Conditions: for IC20: human, CHO cells stably expressing hERG (CHOhERG); for IC20 / IC50: patch-clamp, CHOhERG cells; for hERG IC20/TLR7 IC50 / hERG IC20/TLR8 IC50 / hERG IC20/TLR9 IC50: safety ratio. Put shortly: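 Whole-cell voltage-clamp recordings used CHO cells stably expressing human hERG, with IKhERG evoked by a voltage protocol at 0.1 Hz. Increasing compound concentrations were applied, each for 3–10 min to reach steady state, and current amplitude and kinetics were expressed relative to control (100%).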

In series [2] the target is T2, CYP3A4 (Homo sapiens, UniProt P08684).
T2 construct: tissue BD-Gentest 452117; host or cells: human liver microsomes
In words: CYP inhibition assay in human liver microsome, CYP3A4. The series is classed as in vitro ADME. Conditions: substrate midazolam 5 μM, third value of 2C9/2D6/3A4; for inhibition at 5 min, 10 µM: human, human liver microsomes, probe midazolam 5 μM. Put shortly:
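Pooled human liver microsomes with a substrate for each CYP were incubated with compound at 37 °C after NADPH addition, for 5 min (CYP2D6: 10 min), then quenched with acetonitrile containing labelled metabolite standards. Metabolite/internal-standard peak area ratios were measured by RapidFire MS/MS. % inhibition was scaled between DMSO and standard-inhibitor controls.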

T2 sequence (P08684 whole entry): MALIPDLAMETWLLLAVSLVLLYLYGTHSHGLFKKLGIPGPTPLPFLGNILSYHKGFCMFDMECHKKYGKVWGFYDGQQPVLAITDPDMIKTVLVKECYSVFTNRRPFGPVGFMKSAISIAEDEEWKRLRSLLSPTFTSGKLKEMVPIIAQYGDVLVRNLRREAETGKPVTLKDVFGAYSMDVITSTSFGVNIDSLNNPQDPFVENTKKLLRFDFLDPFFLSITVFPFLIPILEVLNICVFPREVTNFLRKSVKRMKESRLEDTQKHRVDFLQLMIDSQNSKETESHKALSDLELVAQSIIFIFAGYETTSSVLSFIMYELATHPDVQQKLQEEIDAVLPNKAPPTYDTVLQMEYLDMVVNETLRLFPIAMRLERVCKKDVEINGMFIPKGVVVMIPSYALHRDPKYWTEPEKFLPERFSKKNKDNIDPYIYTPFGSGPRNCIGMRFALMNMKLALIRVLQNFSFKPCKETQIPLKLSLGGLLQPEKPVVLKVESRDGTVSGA
T1 sequence (Q12809 whole entry): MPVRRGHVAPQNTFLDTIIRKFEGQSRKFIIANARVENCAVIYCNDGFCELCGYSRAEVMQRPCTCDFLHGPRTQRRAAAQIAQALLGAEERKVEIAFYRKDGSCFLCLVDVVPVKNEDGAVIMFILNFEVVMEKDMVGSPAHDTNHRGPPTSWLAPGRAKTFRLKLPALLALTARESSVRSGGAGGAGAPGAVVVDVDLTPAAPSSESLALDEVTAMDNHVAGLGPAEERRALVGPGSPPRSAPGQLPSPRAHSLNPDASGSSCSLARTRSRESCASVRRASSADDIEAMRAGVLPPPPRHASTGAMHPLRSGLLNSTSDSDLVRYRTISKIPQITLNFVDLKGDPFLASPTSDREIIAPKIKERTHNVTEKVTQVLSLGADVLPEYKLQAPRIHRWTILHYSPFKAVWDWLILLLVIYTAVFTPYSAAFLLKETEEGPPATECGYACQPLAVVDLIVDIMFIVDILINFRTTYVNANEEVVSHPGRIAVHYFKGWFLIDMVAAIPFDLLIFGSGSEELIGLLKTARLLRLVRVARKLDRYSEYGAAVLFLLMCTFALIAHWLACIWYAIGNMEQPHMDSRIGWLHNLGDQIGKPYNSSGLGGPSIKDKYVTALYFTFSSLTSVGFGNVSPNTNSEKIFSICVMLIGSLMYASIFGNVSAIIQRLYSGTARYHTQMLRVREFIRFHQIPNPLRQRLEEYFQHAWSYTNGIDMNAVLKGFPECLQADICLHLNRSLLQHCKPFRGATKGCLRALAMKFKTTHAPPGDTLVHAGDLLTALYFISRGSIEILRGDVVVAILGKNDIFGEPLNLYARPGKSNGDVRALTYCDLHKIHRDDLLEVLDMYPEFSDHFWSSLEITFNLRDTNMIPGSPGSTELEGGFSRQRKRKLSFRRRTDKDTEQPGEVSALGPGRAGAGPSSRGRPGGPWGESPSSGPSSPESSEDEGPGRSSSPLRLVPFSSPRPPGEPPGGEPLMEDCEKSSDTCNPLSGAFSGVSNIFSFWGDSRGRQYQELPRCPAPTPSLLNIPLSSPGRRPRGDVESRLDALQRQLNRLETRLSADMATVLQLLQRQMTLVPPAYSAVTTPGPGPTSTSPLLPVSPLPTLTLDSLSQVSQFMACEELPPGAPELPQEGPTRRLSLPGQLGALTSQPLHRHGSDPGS

Take `C[C@@H]1CN(c2ccc(C#N)c3ncccc23)C[C@H](CN2CCN(c3ccnc(N4CCNCC4)n3)CC2)O1` [Example 15, 5-[(2R,6S)-2-methyl-6-[[4-(2-piperazin-1-ylpyrimidin-4-yl)piperazin-1-yl]methyl]morpholin-4-yl]quinoline-8-carbonitrile]: in series [1], the IC20 was above 10 µM, the IC50 is above 20 µM, the “hERG IC20/TLR7 IC50” value was above 1429 and the “hERG IC20/TLR8 IC50” value is on record as above 3333. Besides, the “hERG IC20/TLR9 IC50” value in series [1] is above 278. The inhibition at 5 min, 10 µM in series [2] stood at 11.5%.
As for `C[C@@H]1CN(c2ccc(C#N)c3ncccc23)C[C@H](CN2CCN(c3ccnc(N[C@H]4CNC[C@H]4F)n3)CC2)O1` [Example 24, 5-[(2S,6R)-2-[[4-[2-[[(3S,4R)-4-fluoropyrrolidin-3-yl]amino]pyrimidin-4-yl]piperazin-1-yl]methyl]-6-methyl-morpholin-4-yl]quinoline-8-carbonitrile], the inhibition at 5 min, 10 µM in series [2] is 4%.
For `COC1CN(c2nccc(N3CCN(C[C@H]4CN(c5ccc(C#N)c6ncccc56)C[C@@H](C)O4)CC3)n2)C[C@H]1N` (stereo in doubt) [Example 52, 5-[(2S,6R)-2-[[4-[2-[(3R,4R)-3-amino-4-methoxy-pyrrolidin-1-yl]pyrimidin-4-yl]piperazin-1-yl]methyl]-6-methyl-morpholin-4-yl]quinoline-8-carbonitrile], the “CYP (%) 3A4 inhibition” value in series [2] was determined as 2%.
With `C[C@@H]1CN(c2ccc(C#N)c3ncccc23)C[C@H](CN2CCN(c3ccnc(N4CCN[C@@H](CO)C4)n3)CC2)O1` [Example 29, 5-[(2S,6R)-2-[[4-[2-[(3R)-3-(hydroxymethyl)piperazin-1-yl]pyrimidin-4-yl]piperazin-1-yl]methyl]-6-methyl-morpholin-4-yl]quinoline-8-carbonitrile], the inhibition at 5 min, 10 µM in series [2] was -5.5%.
Consider `CO[C@H]1CN(c2nccc(N3CCN(C[C@H]4CN(c5ccc(C#N)c6ncccc56)C[C@@H](C)O4)CC3)n2)CC1N` (stereo in doubt) [Example 53, 5-[(2S,6R)-2-[[4-[2-[(3S,4S)-3-amino-4-methoxy-pyrrolidin-1-yl]pyrimidin-4-yl]piperazin-1-yl]methyl]-6-methyl-morpholin-4-yl]quinoline-8-carbonitrile], for which, in series [2], the “CYP (%) 3A4 inhibition” value worked out at 7.5%.
For the molecule `C[C@@H]1CN(c2ccc(C#N)c3ncccc23)C[C@H](CN2CCN(c3cccc(NC4CNC4)n3)CC2)O1` [Example 38], in series [1], it took 5.5 µM to reach the 20% level (IC20), the IC50 is above 20 µM, the “hERG IC20/TLR7 IC50” value amounted to 344 and the “hERG IC20/TLR8 IC50” value turned out to be 500. In series [1], the “hERG IC20/TLR9 IC50” value is given as 57. In series [2], the inhibition at 5 min, 10 µM is 20%.
As to `C[C@@H]1CN(c2ccc(C#N)c3ncccc23)C[C@H](CN2CCN(c3cc(N4CCNCC4)ccn3)CC2)O1` [Example 9, 5-[(2R,6S)-2-methyl-6-[[4-(4-piperazin-1-yl-2-pyridyl)piperazin-1-yl]methyl]morpholin-4-yl]quinoline-8-carbonitrile], in series [2], the inhibition at 5 min, 10 µM was 7.5%.
Take `C[C@@H]1CN(c2ccc(C#N)n3ncc(F)c23)C[C@H](CN2CCN(c3ccc(N[C@H]4CNC[C@H]4F)nc3)CC2)O1` [Example 167, 3-fluoro-4-[(2S,6R)-2-[[4-[6-[[(3S,4R)-4-fluoropyrrolidin-3-yl]amino]-3-pyridyl]piperazin-1-yl]methyl]-6-methyl-morpholin-4-yl]pyrazolo[1,5-a]pyridine-7-carbonitrile]: in series [1], the IC20 was above 10 µM, the IC50 is above 20 µM, the “hERG IC20/TLR7 IC50” value is above 714 and the “hERG IC20/TLR8 IC50” value was above 294. The “hERG IC20/TLR9 IC50” value in series [1] is above 217. Also, the inhibition at 5 min, 10 µM in series [2] was determined as 44%.
Take `C[C@@H]1CN(c2ccc(C#N)c3ncccc23)C[C@H](CN2CCN(c3cncc(N4CCNCC4)c3)CC2)O1` [Example 7, 5-[(2R,6S)-2-methyl-6-[[4-(5-piperazin-1-yl-3-pyridyl)piperazin-1-yl]methyl]morpholin-4-yl]quinoline-8-carbonitrile]: in series [1], the IC20 was above 10 µM, the IC50 was above 20 µM, the “hERG IC20/TLR7 IC50” value was above 294 and the “hERG IC20/TLR8 IC50” value is listed as above 1111. The “hERG IC20/TLR9 IC50” value in series [1] is reported as above 196. In series [2], the inhibition at 5 min, 10 µM is 15.5%.
For `C[C@@H]1CN(c2ccc(C#N)c3ncccc23)C[C@H](CN2CCN(c3nccc(N4CCNCC4)n3)CC2)O1` [Example 14, 5-[(2R,6S)-2-methyl-6-[[4-(4-piperazin-1-ylpyrimidin-2-yl)piperazin-1-yl]methyl]morpholin-4-yl]quinoline-8-carbonitrile], the inhibition at 5 min, 10 µM in series [2] is -2%.
Same read-out and setting: the result for `C[C@@H]1CN(c2ccc(C#N)c3ncccc23)C[C@H](CN2CCC(C#N)(c3ccc(N4CCNCC4)cc3)CC2)O1` [Example 11, 5-[(2S,6R)-2-[[4-cyano-4-(4-piperazin-1-ylphenyl)-1-piperidyl]methyl]-6-methyl-morpholin-4-yl]quinoline-8-carbonitrile] reads 11%.
On the same count and under the same terms, the result for `C[C@@H]1CN(c2ccc(C#N)c3ncccc23)C[C@H](CN2CCN(c3nc(N4CCNCC4)ncc3F)CC2)O1` [Example 45, 5-[(2S,6R)-2-[[4-(5-fluoro-2-piperazin-1-yl-pyrimidin-4-yl)piperazin-1-yl]methyl]-6-methyl-morpholin-4-yl]quinoline-8-carbonitrile] reads -5%; that for `C[C@@H]1CN(c2ccc(C#N)c3ncccc23)C[C@H](CN2CCN(c3ccnc(N4CCNCC(O)C4)n3)CC2)O1` (stereo partly drawn) [Example 25, 5-[(2S,6R)-2-[[4-[2-(6-hydroxy-1,4-diazepan-1-yl)pyrimidin-4-yl]piperazin-1-yl]methyl]-6-methyl-morpholin-4-yl]quinoline-8-carbonitrile], -4%.
Still for that read-out and setting: the result for `C[C@@H]1CN(c2ccc(C#N)c3ncccc23)C[C@H](CN2CCN(c3ccc(N4CCNCC4)cn3)CC2)O1` [Example 8, 5-[(2R,6S)-2-methyl-6-[[4-(5-piperazin-1-yl-2-pyridyl)piperazin-1-yl]methyl]morpholin-4-yl]quinoline-8-carbonitrile] reads -3.5%; that for `C[C@@H]1CN(c2ccc(C#N)c3ncccc23)C[C@H](CN2CCN(c3cc(N4CCN(C)CC4)ncn3)CC2)O1` [Example 21, 5-[(2R,6S)-2-methyl-6-[[4-[6-(4-methylpiperazin-1-yl)pyrimidin-4-yl]piperazin-1-yl]methyl]morpholin-4-yl]quinoline-8-carbonitrile], -1.5%.
Consider `C[C@@H]1CN(c2ccc(C#N)n3ncc(F)c23)C[C@H](CN2CCN(c3ccc(N4C[C@H]5NCCO[C@@H]5C4)nc3)CC2)O1` [Example 168, 4-[(2S,6R)-2-[[4-[6-[(4aR,7aR)-3,4,4a,5,7,7a-hexahydro-2H-pyrrolo[3,4-b][1,4]oxazin-6-yl]-3-pyridyl]piperazin-1-yl]methyl]-6-methyl-morpholin-4-yl]-3-fluoro-pyrazolo[1,5-a]pyridine-7-carbonitrile], for which, in series [1], it took 8.6 µM to reach the 20% level (IC20), the IC50 is above 20 µM, the “hERG IC20/TLR7 IC50” value was determined as 430 and the “hERG IC20/TLR8 IC50” value is given as 150. In addition, in series [1], the “hERG IC20/TLR9 IC50” value was determined as 74. The inhibition at 5 min, 10 µM in series [2] is 11%.
Regarding `C[C@@H]1CN(c2ccc(C#N)c3ncccc23)C[C@H](CN2CCN(c3ccnc(N4CCN(C)CC4)n3)CC2)O1` [Example 22, 5-((2R,6S)-2-methyl-6-((4-(2-(4-methylpiperazin-1-yl)pyrimidin-4-yl)piperazin-1-yl)methyl)morpholino)quinoline-8-carbonitrile], in series [2], the inhibition at 5 min, 10 µM is -16%.
Still for that read-out and setting: the result for `COC1CN(c2ccc(N3CCN(C[C@H]4CN(c5ccc(C#N)c6ncccc56)C[C@@H](C)O4)CC3)cn2)CC1N` (stereo partly drawn) [Example 43, 5-[(2S,6R)-2-[[4-[6-(3-amino-4-methoxy-pyrrolidin-1-yl)-3-pyridyl]piperazin-1-yl]methyl]-6-methyl-morpholin-4-yl]quinoline-8-carbonitrile] reads 16%; that for `COC1CNC[C@H]1Nc1cccc(N2CCN(C[C@H]3CN(c4ccc(C#N)c5ncccc45)C[C@@H](C)O3)CC2)n1` (stereo in doubt) [Example 39, 5-[(2S,6R)-2-[[4-[6-[[(3R,4R)-4-methoxypyrrolidin-3-yl]amino]-2-pyridyl]piperazin-1-yl]methyl]-6-methyl-morpholin-4-yl]quinoline-8-carbonitrile], 23.5%.
In the case of `C[C@@H]1CN(c2ccc(C#N)n3ncc(F)c23)C[C@H](CN2CCN(c3ccc(N4CC5(CN(C)C5)C4)nc3)CC2)O1` [Example 170, 3-fluoro-4-[(2R,6S)-2-methyl-6-[[4-[6-(6-methyl-2,6-diazaspiro[3.3]heptan-2-yl)-3-pyridyl]piperazin-1-yl]methyl]morpholin-4-yl]pyrazolo[1,5-a]pyridine-7-carbonitrile], in series [2], the inhibition at 5 min, 10 µM was -7%.
Still for that read-out and setting: the result for `C[C@@H]1CN(c2ccc(C#N)c3ncccc23)C[C@H](CN2CCN(c3ccc([C@@H]4CNCCO4)cc3)CC2)O1` [Example 19, 5-[(2R,6S)-2-methyl-6-[[4-[4-[(2R)-morpholin-2-yl]phenyl]piperazin-1-yl]methyl]morpholin-4-yl]quinoline-8-carbonitrile] reads 12.5%.

As usually defined, the IC20 is the point of the concentration-response curve where the effect stands at 20%. High values mean a need for much substance, low ones an effect from little substance. One may read the IC50 as the midpoint of a concentration-inhibition curve. By inhibition is commonly meant the relative decrease from the control value, in per cent.

The values above are taken from patent US20210395239A1 (Hoffmann-La Roche Inc., priority 2018, published 2021).
